Assay results from BindingDB's records for patent US12115157 (Boehringer Ingelheim International, 2024).
pEC50: −log10 of the molar value.

Biological target: G-protein coupled receptor 52 (Homo sapiens, UniProt Q9Y2T5)
Assay: Homogeneous Time-Resolved Fluorescence (HTRF) Assay
Description: HTRF cAMP assays were performed using commercially available assay kits according to the manufacturer's instructions (cAMP Dynamic 2 Assay Kit; #62AM4PEJ, Cisbio Bioassays, Bedford, MA). An aliquot of CHO-K1 cells stably expressing recombinant human GPR52 was thawed and resuspended in cell buffer (1×PBS (w/o Ca2+/Mg2+)) at a density of 4×10^5 cells per mL. Test compounds were solubilized in DMSO to 10 mM stock solutions and serially diluted in DMSO using 6-fold dilutions to generate 8-point dose response curves. These serially diluted samples were then diluted 1:50 in compound dilution buffer (1×PBS (w/o Ca2+/Mg2+) containing 0.5 mM IBMX, 0.1% BSA) to achieve a 4× stock. The diluted compounds were transferred (5 μL per well) in duplicate to the 384-well assay plate (Optiplate #6007290, PerkinElmer, Waltham, MA). Both a positive (reference compound) and negative (non-stimulated vehicle) control was included in each assay run in column 23. The cell suspension was subsequently dispensed into the 384-well assay plates at 15 μL per well (6000 cells) such that the compound was diluted to 1×. […] After a one-hour incubation at room temperature, 10 μL of cAMP D2 reagent followed by 10 μL of cryptate reagent (provided in the Cisbio kit) was added to each well. Plates were then incubated at room temperature for one hour prior to reading. Time-resolved fluorescence measurements were collected on an EnVision HTRF plate reader (PerkinElmer, Waltham, MA).

Sequence of G-protein coupled receptor 52 (Q9Y2T5 whole entry): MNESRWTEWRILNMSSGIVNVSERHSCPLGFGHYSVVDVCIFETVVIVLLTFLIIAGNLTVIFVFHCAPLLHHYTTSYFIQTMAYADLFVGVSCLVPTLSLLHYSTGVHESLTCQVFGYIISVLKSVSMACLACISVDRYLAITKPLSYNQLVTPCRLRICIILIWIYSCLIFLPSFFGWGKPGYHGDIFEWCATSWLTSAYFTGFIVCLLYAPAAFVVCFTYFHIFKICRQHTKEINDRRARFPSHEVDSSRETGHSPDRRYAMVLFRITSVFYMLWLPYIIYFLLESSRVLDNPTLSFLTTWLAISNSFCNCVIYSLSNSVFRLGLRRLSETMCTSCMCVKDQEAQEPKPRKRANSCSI

Compound | pEC50
CC(=O)N1C[C@@H](NC(=O)c2nccnc2N2CC(Oc3cc(F)c(F)c(F)c3)C2)C(F)(F)C1 [US12115157, Ex. 11a] | 5.89
CC(=O)N1C[C@H](NC(=O)c2nccnc2N2CC(Oc3ccc(F)c(F)c3)C2)C(F)(F)C1 [US12115157, Ex. 8b] | 8.15
CC(=O)N1C[C@@H](NC(=O)c2nccnc2N2CC(Oc3ccc(F)c(F)c3)C2)C(F)(F)C1 [US12115157, Ex. 8a] | 5.96
CC(=O)N1C[C@H](NC(=O)c2nsnc2N2CC(Oc3ccc(F)c(F)c3)C2)C(F)(F)C1 [US12115157, Ex. 13b] | 8.52
CC(=O)N1C[C@@H](NC(=O)c2nsnc2N2CC(Oc3ccc(F)c(F)c3)C2)C(F)(F)C1 [US12115157, Ex. 13a] | 6.23
CC(=O)N1C[C@H](NC(=O)c2nccnc2N2CC(Oc3cc(F)c(F)c(F)c3)C2)C(F)(F)C1 [US12115157, Ex. 11b] | 8.00
